According to patent publication US6524805B1 (priority 1997, dated 2003):
“And” between values parts separate entries of the source, which are not always exact repeats. Identical values can stand only once. Like-named read-outs stand apart in the source and are kept apart here.

Tests used:
[1] = test system: estrogen surface receptor (ESR1); assay: NO release from ITA fragments and cultured arterial endothelial cells, estrogen compounds; assay type: cell-based, human
Text: Internal thoracic artery (ITA) segments were obtained from patients undergoing elective coronary artery bypass grafting (CABG) for atherosclerotic coronary artery disease. Patients with chronic illnesses, such as diabetes or cancer as well as acute processes (e.g., known infections, trauma), were excluded.
Prior to measuring NO release, the cells were exposed to a concentration gradient of the various ligands.

[2] = test system: estrogen surface receptor (ESR1); assay: Intracellular calcium (fura-2) in human arterial endothelial cells, estrogen compounds; assay type: cell-based; settings: for effect of prior exposure on 17β-estradiol-induced [Ca^2+]i increase: tamoxifen 1 nM, ICI 182, 780 1 μM
Procedure: Human arterial endothelial cells were purchased from Cell Systems (Eugene, Oregon) and grown at 37° C., 5% CO2 in chamber slides (Nunc Int.) with CS-C medium (Cell Systems) supplemented with 10% fetal calf serum and endothelial growth factor. Intracellular calcium levels were measured by dual emission microfluorimetry using the fluorescent dye fura-2/AM. Cells were loaded with the fluorescent ion indicator as follows. […] Cells were washed twice with PBS and then test drugs were added. […] Experiments were carried out at room temperature in PBS without calcium/magnesium. Receptor antagonists, when used, were administered 2 minutes prior to the respective agonist.
Intracellular calcium levels in human arterial endothelial cells were monitored as described herein for the mu3 studies.

[3] = biological target: T1, mu3 opiate receptor (Homo sapiens, UniProt P35372); assay type: cell-based
T1 construct: aliquots of membrane suspensions from human granulocytes and lung non-small cell carcinoma; from tissue; host or cells: human granulocytes, human monocytes, normal lung, non-small cell lung carcinoma tissue, vascular tissue
T1 sequence (P35372 1-314 isoform P35372-14): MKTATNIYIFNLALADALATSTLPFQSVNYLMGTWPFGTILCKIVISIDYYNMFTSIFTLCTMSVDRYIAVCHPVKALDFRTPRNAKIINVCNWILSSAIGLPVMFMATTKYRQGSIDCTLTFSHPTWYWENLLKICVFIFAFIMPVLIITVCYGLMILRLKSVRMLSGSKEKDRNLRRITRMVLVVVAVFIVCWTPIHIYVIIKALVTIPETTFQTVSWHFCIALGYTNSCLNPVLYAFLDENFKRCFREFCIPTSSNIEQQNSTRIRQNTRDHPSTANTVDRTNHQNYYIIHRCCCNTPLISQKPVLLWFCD

[4] = biological target: T1, mu3 opiate receptor; assay: biochemical; assay type: binding
Procedure: Binding was studied in human granulocytes, normal lung, and non-small cell lung carcinoma tissue. The separate materials were washed and homogenized in 50 volumes of 0.32 M sucrose (pH 7.4) at 4° C. […] Briefly, aliquots of membrane suspensions from human granulocytes and lung non-small cell carcinoma (less 9% lymphocyte infiltrate) were incubated with non-radioactive compounds at six concentrations for 10 minutes at 22° C. and then with 40 nM of ^3H-dihydromorphine ([^3H]-DHM) for 60 minutes at 4° C. One hundred percent binding is defined as bound [^3H]-DHM in the presence of 10 μM dextrophan minus bound [^3H]-DHM in the presence of 10 μM levorphanol. The IC50 values are defined as the concentration of drug that elicits half-maximal inhibition of specific binding. The mean SEM for three experiments is given.

[5] = biological target: T1, mu3 opiate receptor; assay type: cell-based; remark: listed apart in the source
Procedure: The system was calibrated daily using different concentrations of the nitrosothiol donor S-nitroso-N-acetyl-DL-penicillamine (SNAP; Sigma, St. Louis, Mo.) to generate a standard curve. The concentration of NO gas in solution was measured in real-time with the DUO 18 computer data acquisition system (World Precision Instruments). Each experiment was simultaneously performed with a control (vehicle alone) to exclude experimental drift in NO release unrelated to the administration of compounds.

## C[C@]12CC[C@@H]3c4ccc(O)cc4CC[C@H]3[C@@H]1CC[C@H]2O [17α-estradiol]
[1]
  stimulation of NO release: did not stimulate

## C[C@]12CC[C@@H]3c4ccc(O)cc4CC[C@H]3[C@@H]1CC[C@@H]2O [17β-estradiol]
[2]; 17β-estradiol 1 nM, 3 hour Ca-free incubation, medium changed six times
  [Ca^2+]i after leaching of intracellular calcium stores: 3.8±0.6
[2]; stated with the [Ca^2+]i results
  EC50: 0.0005 µM
[1]
  NO release at 10 pM: failed to stimulate a significant increase
  NO release in Ca-leached endothelial cells: 1.8 ± 0.6 nM
  NO release peak value: 16.1 nM
  concentration of maximal effect on NO release: 1 nM
  peak value of NO release (non-leached comparison): 16.0 ± 2.7 nM
  response of ITA with endothelial lining scraped off: non-responsive
  time period of NO release: 10 min
  time to peak of NO release: ≤ 2 min

## CC(C)C[C@@H](NC(=O)[C@H](Cc1ccccc1)NC(=O)CNC(=O)[C@@H](C)NC(=O)[C@@H](N)Cc1ccc(O)cc1)C(=O)O [DADLE, (D-Ala^2, Leu^5)-enkephalin]
[3]
  stimulation of intracellular calcium level increases in endothelial cells: did not stimulate

## CSCC[C@H](NC(=O)[C@H](Cc1ccccc1)NC(=O)CNC(=O)[C@@H](C)NC(=O)[C@@H](N)Cc1ccc(O)cc1)C(N)=O [DAMA, (D-Ala^2, Met^5)-enkephalinamide]
[4]; GRANULOCYTES membranes, 40 nM [3H]-DHM, mean ± SEM, three experiments, read-out: Displacement of [3H]-DHM IC50
  IC50: > 1 µM
[4]; LUNG CARCINOMA (non-small cell) membranes, 40 nM [3H]-DHM, mean ± SEM, read-out: Displacement of [3H]-DHM IC50
  IC50: > 1 µM
[4]; NORMAL LUNG membranes, 40 nM [3H]-DHM, mean ± SEM, read-out: Displacement of [3H]-DHM IC50
  IC50: > 1 µM
[5]
  NO release at 4 minutes post morphine exposure: 5.2 ± 1.4 nM
[5]; 1 nM peptide, vascular tissue, human monocytes, human granulocytes
  effect of pre-treatment on morphine-induced NO release: prevented
[5]; 1 nM peptide, vascular tissue, 4 to 10 minute time points
  inhibition of morphine-induced NO release: significantly (P<0.05) inhibited
[5]; vascular tissue, DAMA alone 1 nM
  NO release at 4 minutes: 0.0 nM
[3]; concentration range 1 pM to 1 μM
  stimulation of intracellular calcium level increases in endothelial cells: did not stimulate

## C[C@@H](NC(=O)[C@@H](N)Cc1ccc(O)cc1)C(=O)NCC(=O)N(C)[C@@H](Cc1ccccc1)C(=O)NCCO [DAMGO, (Tyr-D-Ala^2, Gly-N-Me-Phe^4, Gly(ol)^5)-enkephalin]
[5]
  effect of pre-treatment on morphine-induced NO release: prevented
  effect on NO release (compound alone): no effect
  inhibition of morphine-induced NO release: significantly (P<0.05) inhibited
[3]
  stimulation of endothelial [Ca^2+]i increases: did not stimulate

## CN1CC[C@]23c4c5ccc(O)c4O[C@H]2[C@@H](O)CC[C@H]3[C@H]1C5 [Dihydromorphine]
[4]; Displacement of [3H]-DHM IC50
  IC50: 0.033 µM and 0.027 µM and 0.0285 µM

## C[C@]12CC[C@@H]3c4ccc(O)cc4C[C@@H](CCCCCCCCC[S+]([O-])CCCC(F)(F)C(F)(F)F)[C@H]3[C@@H]1CC[C@@H]2O (stereo partly shown) [ICI 182, 780]
[2]
  effect of prior exposure on 17β-estradiol-induced [Ca^2+]i increase: not
[1]; ITA fragments and cultured arterial endothelial cells, tamoxifen 1 nM, ICI 182,780 1 nM, L-NAME 100 μM, 5 minutes before agonist
  effect of pre-treatment on 17β-estradiol-induced NO release: failed to inhibit
[1]; ITA fragments and cultured arterial endothelial cells, tamoxifen, ICI 182,780 1 nM, L-NAME 100 μM, 5 minutes before agonist
  effect of pre-treatment on E2-BSA-induced NO release: failed to inhibit

## COC(=O)[C@@H](N)CCCNC(=N)N[N+](=O)[O-] [L-NAME, N omega-nitro-L-arginine methyl ester]
[5]; human granulocytes
  effect of pretreatment on morphine-induced NO release: inhibited

## Oc1ccc2c3c1O[C@H]1c4[nH]c5ccccc5c4C[C@@]4(O)[C@@H](C2)N(CC2CC2)CC[C@]314 [Naltrindole]
[5]
  NO release: 12.0 ± 3.4 nM
  effect on the inhibition of morphine-induced NO release by DAMA: blocked

## CC/C(=C(\c1ccccc1)c1ccc(OCCN(C)C)cc1)c1ccccc1 [Tamoxifen]
[2]
  effect of prior exposure on 17β-estradiol-induced [Ca^2+]i increase: blocked
[1]
  effect of pre-treatment on 17β-estradiol-induced NO release: significantly diminished
  effect of pre-treatment on E2-BSA-induced NO release: blocked
